Reference: article PMC4339887, “Selective Sirt2 inhibition by ligand-induced rearrangement of the active site” (Nature Communications, 2015)
Entries after “also recorded” stand apart in the source; their conditions may differ.

Columns and labels:
Sirt3 = tested on: Sirt3; set-up: method as in earlier work; conditions: selectivity profile, Sirt3 entry; † inhibition substrate-dependent; ref 2-9 (supplementary references); cited from earlier work
Sirt1 = tested on: Sirt1; set-up: method as in earlier work; conditions: selectivity profile, Sirt1 entry; ref 2-9 (supplementary references); cited from earlier work
Sirt2 = biological target: Sirt2; set-up: method as in earlier work; conditions: ref 2-9 (supplementary references), cited from earlier work
human Sirt2 = biological target: T1, human Sirt2 (Homo sapiens, UniProt Q8IXJ6); experiment: fluorescence-based in vitro sirtuin assay, substrate ZMAL
T1 sequence (Q8IXJ6 25-389): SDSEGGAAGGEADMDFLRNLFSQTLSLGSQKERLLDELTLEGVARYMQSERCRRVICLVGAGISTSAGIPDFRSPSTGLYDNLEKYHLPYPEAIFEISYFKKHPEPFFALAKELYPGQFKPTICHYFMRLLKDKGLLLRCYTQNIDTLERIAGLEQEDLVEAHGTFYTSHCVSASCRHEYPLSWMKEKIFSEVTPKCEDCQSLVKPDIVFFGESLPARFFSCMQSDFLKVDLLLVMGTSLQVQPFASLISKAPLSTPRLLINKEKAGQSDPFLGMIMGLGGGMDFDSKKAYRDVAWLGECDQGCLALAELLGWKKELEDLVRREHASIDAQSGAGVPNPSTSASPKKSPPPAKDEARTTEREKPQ

BubR1 in HeLa cells = experiment: abundance of BubR1, western blot; format: cell-based; conditions: various concentrations, 16 h
Description: Cells were washed with PBS, lysed in IPLS (50 mM Tris/HCl, 150 mM NaCl, 0.5 mM EDTA, 0.5% (v/v) NP-40, pH 7.5, supplemented with Complete protease inhibitors (Roche)). Samples were pelleted and resuspended in 1 × SDS–PAGE sample buffer and heated (95 °C, 5 min). Cell samples were separated using SDS–PAGE (10% (w/v) polyacrylamide), transferred to a nitrocellulose membrane (Bio-Rad), blocked with non-fat dry milk (Roth, 5% (w/v), TBS, 0.1% (v/v) Tween 20) and probed with the anti-BubR1 (1:5,000, BD Biosciences, 612502) and anti-tubulin (1:5,000, Sigma-Aldrich, T5168) as a loading control. Uncropped blots are shown in the Supplementary Fig. 8.

[1] = tested on: p53-Lys382-acetylation in U2OS cells; experiment: p53 acetylation after ultraviolet exposure, western blot; format: cell-based; conditions: 1 h pretreatment, 20 J cm^-2 UV, further 6 h
Description: U2OS cells (ATCC accession no. HTB-96) were seeded and cultured until they reached 90% confluency. […] Cells were incubated for an additional 6 h in the presence of the inhibitor and then lysed in IPLS (50 mM Tris/HCl, 150 mM NaCl; 0.5 mM EDTA; 0.5% (v/v) NP-40; 1 × Complete Protease Inhibitors (Roche), pH 8.0) and resuspended in 1 × Laemmli Buffer. Samples were then separated on SDS–PAGE, transferred to a nitrocellulose membrane (Bio-Rad), blocked with non-fat dry milk (Roth, 5% (w/v), TBS, 0.1% (v/v) Tween 20) and probed with anti-acetyl-p53 K382 (Cell Signaling, #2522), anti-p53 DO.1 (Santa Cruz Biotechnology, sc-126) and anti-vinculin (Cell Signaling, #4650) as a loading control. Uncropped blots are shown in the Supplementary Fig. 10.

[2] = tested on: acetylation of the microtubule network in HeLa cells; experiment: immunofluorescence microscopy of acetylated microtubule network; format: cell-based; conditions: 4 h
From the text: Cells were then stained with an anti-acetyl-α-tubulin antibody (Sigma-Aldrich, T6793) and then probed with a secondary Alexa 546 conjugated anti-mouse-antibody (Invitrogen). Nuclei were counterstained with DAPI (4',6-diamidino-2-phenylindole). Coverslips were mounted with FluoroMount (Sigma-Aldrich) and sealed with DPX Mountant (Sigma-Aldrich). Images of the mounted samples were acquired on a Leica DM500 microscope equipped with a Leica DFC 395 FX camera and HBO 100 W lamp[40]. The microscope was run with the Leica Application Suite 4.4.0 software. Chroma UV filter set (No. C40888) and Leica N2.1 filter set (No. 513832) were used for DAPI and Alexa 546 signal acquisition, respectively, with a HCX FL Fluotar 40x/0.75 (dry) objective. Further details about the equipment and the settings that were used to acquire the images are found in the Supplementary Methods section. Unprocessed images are found in Supplementary Fig. 9. […]
Immunocytochemistry equipment and settings. The signal of Alexa 546 and DAPI of the same region were acquired with constant illumination parameters as grayscale 8-bit 600 dpi tiff files (1600u 1200 pixels). Alexa 546 was acquired after 639.1 ms with a gamma factor of 0.65 without multiplying. The gain was set to 1. DAPI-stained images were acquired after about 20 ms with the same parameters as the one for Alexa 546 image acquisition. The temperature in the microscope room was kept at RT. Representative regions of each samples were processed with Adobe Photoshop CS2 to generate images in RGB mode by copying the appropriate original greyscale images to the blue (nuclei, DAPI) and the red (acetylated D-tubulin signal, Alexa 546) channel, respectively. As adjustment, a minimal background subtraction was applied on all images during processing in the same manner. The resolution was changed from 600 dpi (source images) to 450 dpi without resampling (Fig. 7 of the main article). LUT (CLUT) of grayscale images of the acetylated D-tubulin signal and of the DAPI signal are shown in Supplementary Fig. 8. […]

[3] = tested on: α-tubulin acetylation in HeLa cells; experiment: tubulin acetylation, western blot; format: cell-based; conditions: various concentrations, 5 h
From the text: Cell samples were then separated using SDS–PAGE (12.5% (w/v) polyacrylamide), transferred to an activated nitrocellulose membrane (Bio-Rad), blocked with non-fat dry milk (Roth, 5% (w/v), TBS, 0.1% (v/v) Tween 20) and probed with an anti-acetyl-α-tubulin antibody (1:1,000, Sigma-Aldrich, T6793) and an anti-GAPDH antibody (1:2,000–1:5,000, Sigma-Aldrich, G9545) as a loading control (Fusion SL, peqlab). An uncropped blot is shown in Supplementary Fig. 8.

human Sirt1 = biological target: T2, human Sirt1 (Homo sapiens, UniProt Q96EB6); experiment: fluorescence-based in vitro sirtuin assay, substrate ZMAL; conditions: at 50 μM
T2 sequence (Q96EB6 133-747): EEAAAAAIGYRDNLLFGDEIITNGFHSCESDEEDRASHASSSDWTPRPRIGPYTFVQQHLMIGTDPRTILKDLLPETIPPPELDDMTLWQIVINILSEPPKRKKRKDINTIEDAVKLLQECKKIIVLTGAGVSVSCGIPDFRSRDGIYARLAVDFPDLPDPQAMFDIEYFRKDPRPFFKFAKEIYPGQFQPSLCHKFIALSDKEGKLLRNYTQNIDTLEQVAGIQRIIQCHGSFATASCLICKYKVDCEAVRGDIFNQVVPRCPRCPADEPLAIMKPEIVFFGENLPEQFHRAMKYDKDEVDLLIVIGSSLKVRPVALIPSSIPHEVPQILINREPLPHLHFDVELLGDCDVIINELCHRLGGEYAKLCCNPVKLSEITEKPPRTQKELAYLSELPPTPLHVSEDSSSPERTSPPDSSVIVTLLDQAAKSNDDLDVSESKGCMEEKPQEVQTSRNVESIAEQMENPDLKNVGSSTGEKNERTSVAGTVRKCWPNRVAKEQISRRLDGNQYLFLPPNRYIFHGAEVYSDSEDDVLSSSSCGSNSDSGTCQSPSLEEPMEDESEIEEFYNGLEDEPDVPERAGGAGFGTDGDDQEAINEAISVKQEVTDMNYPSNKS

[4] = tested on: mitochondrial lysine-acetylation in HEK293 cells; experiment: mitochondrial protein acetylation, western blot of mitochondrial extracts; format: cell-based; conditions: 16 h
Description: page 27: Cell cultiva tion. HEK-293 cells (ATCC accession no. CRL-1573) were grown in Dulbecco's modified Eagle's medium (DMEM, PAA) containing 10% (vol/vol) fetal calf serum (FCS, PAA), 1% (vol/vol) penicillin (PAA), 1% (vol/vol) streptomycin (PAA), 1% (vol/vol), L- glutamine (PAA) at 37 °C in a 5% (vol/vol) CO2 atmosphere. Mitochondrial extra ction. HEK-293 cells (ATCC accession no. CRL-1573) were treated with nicotinamide or […]2 at the indicated concentrations for 16 h. Cells were washed in PBS and lysed in 5 packed cell volumes of lysis buffer (20 mM HEPES/KOH, 250 mM sucrose; 10 mM KCl, 1.5 mM MgCl2, 1 mM EDTA, 1 mM EGTA, 1 mM DTT; 0.1 mM PMSF, 1uComplete Protease Inhibitor Cocktail (Roche), pH 7.5). Cells were then homogenized in a Dounce homogenizer and 10% (vol/vol) of sample was removed for use as whole cell extract (WCE). To the remaining lysate, unbroken cells and nuclei were removed by centrifugation (10 min, 800g). The supernatant was transferred and centrifuged (10 min, 7,000g) to pellet mitochondria. Mitochondria were washed twice in lysis buffer, repeating centrifugation after each wash, followed by resuspending washed mitochondria in lysis buffer. […] Lysates were cleared by centrifugation, protein concentrations were quantitated and normalized with 1u Laemmli Buffer. […]

For `NC(=O)[C@H]1CCCCc2c1[nH]c1ccc(Cl)cc21` [CHIC-35], the “Selectivity Sirt1/Sirt2/Sirt3 (fold): Sirt3” value (Sirt3) is given as > 833 fold, the “Selectivity Sirt1/Sirt2/Sirt3 (fold): Sirt1” value (Sirt1) is given as 1 fold and the “IC50/kd for Sirt2” value (Sirt2; published values, Supplementary Table 1) is given as 2.4 µM. For the same compound, the “Selectivity Sirt1/Sirt2/Sirt3 (fold): Sirt2” value (Sirt2; selectivity profile, Sirt2 entry) was 23 fold.

`O=C(CSc1ncccn1)Nc1ncc(Cc2cccc3ccccc23)s1` [SirReal3] gave an IC50 (human Sirt2) of 2.3 µM.

In the case of `Cc1cc(C)cc(SCC(=O)Nc2ncc(Cc3cccc4ccccc34)s2)c1` [SirReal5], the “abundance of BubR1” value (BubR1 in HeLa cells) is reported as “did not influence”, the “acetylation of p53 (Lys382) after ultraviolet exposure” value (from here on “acetylation of p53 (Lys382)”) [1] is reported as “did not observe an increase” and the IC50 (human Sirt2) is reported as > 50 µM.

For `O=C(Nc1ccccc1-c1cn2c(CN3CCNCC3)csc2n1)c1cnc2ccccc2n1` [SRT1720], the “Selectivity Sirt1/Sirt2/Sirt3 (fold): Sirt3” value (Sirt3) is listed as 1 fold and the “Selectivity Sirt1/Sirt2/Sirt3 (fold): Sirt1” value (Sirt1) is listed as “activation”.

For `Cc1cc(C)nc(SCC(=O)N(C)c2ncc(Cc3cccc4ccccc34)s2)n1` [SirReal6], the “abundance of BubR1” value (BubR1 in HeLa cells) was “did not influence”, the “acetylation of p53 (Lys382)” value [1] was “did not observe an increase” and the IC50 (human Sirt2) was > 100 µM. The “acetylation level of the microtubule network” value ([2]; 50 μM) was “does not alter; also recorded: no substantial change” and the “level of α-tubulin acetylation” value [3] was “not”.

With `N#C/C(=C\c1ccc(-c2cc(Cl)ccc2Cl)o1)C(=O)Nc1cccc2ncccc12` [AGK2, reference compound] the “acetylation level of the microtubule network” value ([2]; 20 μM) was “hyperacetylation of the microtubule network” and the “activity of Sirt1” value (human Sirt1) was “not affected”.

With `NC(=O)c1cccnc1` [NCA, nicotinamide, reference compound] the “acetylation of mitochondrial proteins” value [4] was “increase”, the “acetylation of p53 (Lys382)” value [1] was “further increased” and the “acetylation of p53 (Lys382)” value ([1]; listed as nicotinamide) was “increase”.

Work on `O=C(CSc1ncccn1)Nc1ncc(Cc2ccccc2)s1` [SirReal4] yielded an IC50 (human Sirt2) of 16.8 µM.
